Measured values: US9725490B2, “ERAP1-derived peptide and use thereof” (TOKUSHIMA UNIVERSITY, priority 2011, dated 2017)

Experiments:
[1] = test system: Tam-R MCF-7 tumor; assay: In vivo antitumor effect, Tam-R MCF-7 orthotopic transplant; parameters: species or system BALB/c nude mouse; conditions: intraperitoneal every day, E2 6 μg/day, day 21
Source text: FIG. 27 is a diagram illustrating the inhibition effect of the ERAP1-peptide on tumor proliferation in a mouse orthotopically transplanted with human breast cancer. […] KPL-3 cells were subcutaneously transplanted into the breast fat body of a BALB/c nude mouse. The treatment test (5 individuals/group) was initiated (day 0) when the volume of the tumor reached about 50-80 mm^3 in the absence of E2. To a cancerous mouse orthotopically transplanted with KPL-3C tumor, the ERAP1-peptide (Peptide: 14 mg/kg) or the ERAP1-scramble peptide (scrPeptide: 14 mg/kg) was administered every day by intraperitoneal injection. At the same time, E2 (6 μg/day) was administered subcutaneously every day. On day 14, the mouse was euthanatized, and the tumor was removed, and phosphorylation of PHB2/REA (S39) in each tumor was evaluated with immunoblotting analysis. […] The tamoxifen-resistant MCF7-cells (Tam-R MCF-7) were subcutaneously transplanted into the breast fat body of a BALB/c nude mouse, and the treatment test (5 individuals/group) was initiated (day 0) when the volume of the tumor reached about 50-80 mm^3 in the presence of tamoxifen (37 ng/day, 1.85 μg/kg). To a cancerous mouse orthotopically transplanted with Tam-R MCF-7 tumor, the ERAP1-peptide (Peptide: 3.5, 7 and 14 mg/kg) or the ERAP1-scramble peptide (scrPeptide: 14 mg/kg) was administered every day by intraperitoneal injection. […]

[2] = test system: KPL3 cells; assay: E2-independent cell proliferation, KPL-3C; type: cell-based, human; conditions: 10 μM every 24 hours, at 48 hours
Experimental: (§1) FIG. 16 is a diagram illustrating the influence of the ERAP1-peptide on proliferation of E2-independent breast cancer cells. […] Each of the cells was treated with 10 μM ERAP1-peptide for 24 hours (MCF-7), for 48 hours (KPL-3C) or for 96 hours (ZR-75-1 and T47D).
(§2) MCF-7 cells or ZR-75-1 cells were seeded in 2×10^4/well, and KPL-3C cells were seeded in 1×10^4/well on a 48-well plate, and stood in a CO2 incubator for 24 hours. Then, for MCF-7 cells, the culture medium was exchanged with DMEM/F12 culture medium containing 10% FBS (Nichirei Biosciences, Tokyo, Japan), 1% antibiotic/antimycotic solution (Invitrogen), 0.1 mM NEAA48 (invitrogen), 1 mM sodium pyruvate and 10 μg/ml insulin (Sigma, St. Louis, Mo., USA) and not containing phenol red, and the cells were further pre-cultured for 24 hours. On the other hand, for ZR-75-1 cells and KPL-3C cells, the culture media were exchanged with RPMI culture media containing 10% FBS and 1% antibiotic/antimycotic solution and not containing phenol red, and the cells were further pre-cultured for 24 hours. The supernatant was removed, and then 200 μl of the ERAP1-peptide in each concentration or tamoxifen as a positive control was added, respectively and the mixture was reacted for 24 hours. […] Then, 100 μl from each well was moved to a 96-well plate, and the absorbance at 450 nm was measured with a microplate reader.

[3] = test system: tamoxifen-resistant MCF-7 cells; assay: Proliferation of tamoxifen-resistant MCF-7 cells; type: cell-based, human; conditions: 0, 5, 10 μM; in the presence of E2 and tamoxifen; 24 hours
Experimental: FIG. 14 is a diagram illustrating the suppression effect of the ERAP1-peptide on tamoxifen-resistant MCF-7 cells. […] The tamoxifen-resistant MCF-7 cells were treated with the ERAP1-peptide in each concentration (0, 5 and 10 μM). Then, immediately, the cells were stimulated with 10 nM E2 for 24 hours.
As the tamoxifen-resistant MCF-7 cell lines, those provided from Dr. Satoshi Inoue (Saitama Medical University Research Center for Genomic Medicine) under Material transfer agreement were offered for the experiment described below. The culture of tamoxifen-resistant MCF-7 cell was performed under the conditions recommended by the depositor. The tamoxifen-resistant MCF-7 cells were cultured in DMEM (Invitrogen, Carlsbad, Calif., USA) reinforced with 10% FBS (Nichirei Biosciences, Tokyo, Japan), 1% penicillin/streptomycin (Nacalai tesque, Kyoto, Japan), 1 μM tamoxifen (Sigma, St. Louis. Mo., USA).
Cell proliferation assay was evaluated using Cell-Counting Kit-8 (CCK-8, manufactured by Dojindo Company). First, tamoxifen-resistant MCF-7 cells were seeded in 2×10^4/well on a 48-well plate in DMEM/F12 culture medium containing phenol red and stood in a CO2 incubator for 24 hours. […] Then, 100 μl was moved to a 96-well plate from each well, and the absorbance at 450 nm was measured with a microplate reader.

[4] = test system: MCF-10A cells; assay: Cell proliferation assay, normal epithelial MCF-10A; type: cell-based, human; conditions: 24 hours
Experimental: FIG. 6-1 is a diagram illustrating that ERAP1-peptide treatment suppresses ERα-dependent cell proliferation of breast cancer cell lines. (A) and (B) show the results of MTT assay by which the inhibition effect of the ERAP1-peptide in the E2-dependent cell proliferation was evaluated. MCF-7 cells were treated with the ERAP1-peptide (A, B) the ERAP1-scramble peptide (B) or the ERAP1-mutant peptide (B).
Using Cell-Counting Kit-8 (CCK-8, Dojindo, Kumamoto, Japan), the cell proliferation assay was performed. The cells were harvested, and plated in 2×10^4 cells/well on a 48-well plate, and maintained at 37° C. in a humidified incubator. At the indicated time points, the cells were added with a CCK-8 solution diluted to 1:10, and incubated for 1 hour. Then, the absorbance at 450 nm was measured and the number of living cells in each well was calculated.

[5] = test system: ZR75-1 cells; assay: E2-independent cell proliferation, ZR-75-1; type: cell-based, human; conditions: 10 μM every 24 hours, at 96 hours
Experimental: as §1, §2

[6] = test system: ERα phosphorylation; assay: E2-induced ERα phosphorylation, Western blotting, KPL-3C and BT-474; type: cell-based, human; conditions: KPL-3C and BT-474 cells
Experimental: FIG. 9-2 is a diagram illustrating that ERAP1-peptide treatment suppresses the non-genomic activation route. […] The cells (C and D) or BT474 cells (E) Were treated with the ERAP1-peptide. Then, the phosphorylation levels of Akt (C). MAPK (C) and ERα (D and E) were evaluated with Western blotting. The relative phosphorylation levels were quantified by densitometry analysis, and the ratio to the value at 0 hour for non-treated cells was calculated.

## CSCC[C@H](NC(=O)[C@H](CCC(N)=O)NC(=O)[C@H](CCCNC(=N)N)NC(=O)[C@H](CCCNC(=N)N)NC(=O)[C@H](CCCNC(=N)N)NC(=O)[C@H](CCCNC(=N)N)NC(=O)[C@H](CCCNC(=N)N)NC(=O)[C@H](CCCNC(=N)N)NC(=O)[C@H](CCCNC(=N)N)NC(=O)[C@H](CCCNC(=N)N)NC(=O)[C@H](CCCNC(=N)N)NC(=O)[C@H](CCCNC(=N)N)NC(=O)[C@@H](N)CCCNC(=N)N)C(=O)N[C@@H](CC(C)C)C(=O)N[C@@H](CO)C(=O)N[C@@H](CC(=O)O)C(=O)N[C@@H](CC(C)C)C(=O)N[C@H](C(=O)N[C@@H](CC(C)C)C(=O)N[C@@H](CCC(N)=O)C(=O)N[C@@H](CC(C)C)C(=O)N[C@@H](CCCNC(=N)N)C(=O)N[C@@H](CCC(N)=O)C(=O)N[C@@H](CCCNC(=N)N)C(=O)O)[C@@H](C)O [ERAP1-peptide]
[1]
  antitumor effect (tumor volume): The antitumor effect was recognized
[2]
  cell proliferation in the absence of E2: significant cell proliferation suppression effect
[3]
  cell proliferation of Tam-R MCF-7: remarkably suppressed the cell proliferation in dose-dependent manner
[4]
  cell proliferation: had no influence on the cell proliferation at all
[5]
  cell proliferation in the absence of E2: significant cell proliferation suppression effect
[6]
  E2-dependent phosphorylation of ERα sites: E2-dependent phosphorylation in all of the sites was suppressed
